According to article PMC8411703 (Frontiers in Pharmacology, 2021):

What was measured:
[1] = Description: This study was a prospective, multicentric, PK/PD study. It included pediatric patients who were admitted to the pediatric ICU between July 2017 and November 2019 at two hospitals in Santiago, Chile. The Ethical Committee for Research of Clinica Las Condes approved this prospective study (approval number: M012017) and required signed written informed consent from each patient’s parents. […] Neonates were excluded.
Meropenem was administered as a 3-h infusion with intravenous doses of 20–40 mg/kg every 8 or 12 h. […] Both antibiotics’ doses were adjusted according to renal function. Blood samples were collected at 1 and 3 h post-infusion and before the following dose for meropenem.
Unbound meropenem plasma concentrations were determined by high-performance liquid chromatography (Agilent Infinity 1,260, Santa Clara, United States) with a UV detector. The methodology was adapted to the equipment conditions from available publications ([Elkhaïli et al., 1996]; [McWhinney et al., 2010]; [Wolff et al., 2013]) and validated according to the recommendations of the Bioanalytical Method Validation Guidance for Industry ([U.S. Department of Health and Human Services, 2018]). The stationary phase was a Zorbax Eclipse Plus C18 column (3.5 μm, 75 × 4.6 mm) and the mobile phase was acetonitrile with 10 mM ammonium acetate (pH 4.0) (5:95, organic solvent:buffer initiallity) in gradient to minute 7(50:50, organic solvent:buffer). Meropenem was detected by UV detection at 298 nm. The flow rate was 1.0 ml/min. […] Standard curves were prepared in blank human plasma. […] Meropenem in plasma samples was quantified using the peak area of standard samples for calibrations.
For both analytes, the measurement was performed on the free-drug, non-protein bound fraction.
Pharmacokinetic modelling was performed using PMetrics 1.5.0 with RStudio 0.99.902 and digital compiler Gfortran 5.2. […] Primary pharmacokinetic parameters of CL and Vd for the central compartment were calculated. Elimination from the central compartment and inter-compartmental distribution were modelled as first-order processes. Inter-compartmental distribution was described as rate of transfer from the unbound compartment to a peripheral compartment (Kcp) and rate of transfer from a peripheral compartment to the unbound compartment (Kpc). […] Volume of the peripheral compartment (Vp) was calculated as (Vc*Kcp)/Kpc, where Vc is the volume of the central compartment. Total Vd was calculated as the sum of Vc and Vp.
We selected the final model on the basis of minimizing the Akaike Information Criterion (AIC) and likelihood of the nested models (-2*Log-likelihood, -2*LL), with both criteria penalized by the number of parameters in the model. A reduction of -2*LL as calculated within Pmetrics was used for statistical comparison of nested models. We also factored bias (mean weighted predicted-observed error) and imprecision (bias-adjusted, mean weighted squared predicted-observed error) and correlation co-efficient into the selection of the final model. Shrinkage was calculated as the percentage of total variance in each model probability distribution.
Covariate model building was performed using sequential assessment of biologically plausible clinical characteristics. Continuous data was used for all covariates tested, with the exception of gender, which was male/female. The association of the covariates versus parameters was assessed by regression with linear or non-linear associations able to be used in the covariate model testing with inclusion based upon biological plausibility and a statistically significant improvement in log-likelihood. Inclusion age (months), weight (kg), height (cm), gender, C-reactive protein (mg/L), albumin (g/L), total bilirubin (mg/dl), serum creatinine (mg/dl), 24-h hydric balance (ml).

[2] = tested on: Pseudomonas aeruginosa; conditions: in vivo
Procedure: For meropenem analysis, we used the plasma concentration at 1 h after the end of a 3-h infusion of the drug corresponding to a dosing interval of 50%.

[3] = in vivo; cited from earlier work
[4] = parameters: method as in Rybak, 2006; conditions: ref Rybak, 2006; cited from earlier work
[5] = pediatric ECMO patients, 11 PK profiles, population median

| Compound | CL (clearance of meropenem), median ([1]; human, in vivo) [mL/min/kg] | Kcp (rate of transfer central to peripheral compartment), meropenem, mean ([1]; human, in vivo) [h⁻¹] | Kcp, meropenem, median ([1]; human, in vivo) [h⁻¹] | Kpc (rate of transfer peripheral to central compartment), meropenem, mean ([1]; human, in vivo) [h⁻¹] | Kpc, meropenem, median ([1]; human, in vivo) [h⁻¹] | Vc (central volume of distribution of meropenem), median ([1]; human, in vivo) [L/kg] | Vd (vc + vp), meropenem, mean ([1]; human, in vivo) [L/kg] | Vp (Vc*kcp/kpc), meropenem, mean ([1]; human, in vivo) [L/kg] | PK profiles achieving PK/PD target fT 50% > 4 x MIC [2] [%] | meropenem clearance in most reported studies, range [3] [mL/min/kg] | Kcp (rate of transfer central to peripheral compartment), vancomycin, mean ([1]; pediatric ECMO patients, 11 PK profiles, population mean) [h⁻¹] | Kcp, vancomycin, median [1, 5] [h⁻¹] | Kpc, vancomycin, median [1, 5] [h⁻¹] | elimination route [4] |
| --- | --- | --- | --- | --- | --- | --- | --- | --- | --- | --- | --- | --- | --- | --- |
| C[C@@H](O)[C@H]1C(=O)N2C(C(=O)O)=C(S[C@@H]3CN[C@H](C(=O)N(C)C)C3)[C@H](C)[C@H]12 [meropenem] | 2.4 | 1.37 | 1.30 | 1.25 | 1.34 | 0.289 | 0.606 | 0.317 | 91 | 2.17 to 17.55 | – | – | – | – |
| CN[C@H](CC(C)C)C(=O)N[C@H]1C(=O)N[C@@H](CC(N)=O)C(=O)N[C@H]2C(=O)N[C@H]3C(=O)N[C@H](C(=O)N[C@H](C(=O)O)c4cc(O)cc(O)c4-c4cc3ccc4O)[C@H](O)c3ccc(c(Cl)c3)Oc3cc2cc(c3O[C@@H]2O[C@H](CO)[C@@H](O)[C@H](O)[C@H]2O[C@H]2C[C@](C)(N)[C@H](O)[C@H](C)O2)Oc2ccc(cc2Cl)[C@H]1O [vancomycin] | – | – | – | – | – | – | – | – | – | – | 0.483 | 0.481 | 0.286 | nearly completely renally eliminated |
